Key:
rhesus monkeys = assay: Spatial delayed response (SDR) task; assay type: in vivo, rhesus monkey
Source text: AZD0328 at low doses improved performance in the spatial delayed response test in monkeys. Rhesus monkeys were trained in a spatial delayed response task. In this task, food-motivated monkeys observed one of several spatially-displaced wells being baited with a food reward. After a brief delay during which a shutter is drawn and the wells are covered, the monkey must indicate the position of the baited well to receive the food reward. The performance of groups of monkeys was titrated into a narrow range by changing the number of wells or the duration of the delay. Monkeys were tested extensively to establish baseline performance before being administered drug or vehicle. Intramuscular administration of 0.00048 or 0.0016 mg/kg AZD0328 evoked a sustained increase in the percentage of correct responses monkeys made when compared with responses of vehicle-treated monkeys. […] Higher doses (≧0.016 mg/kg or higher) and lower doses (≦0.00016 mg/kg) had either no effect on monkeys or transiently impaired their performance of the task.
Rhesus monkey were trained in a spatial delayed response task. Middle doses of AZD0328 (0.0016 and 0.00048 mg/kg im) evoked a sustained improvement in rhesus monkey performance, while a higher dose (0.48 mg/kg) and a lower dose (0.000016 mg/kg) transiently impaired performance of the task (Table 2).

α7 receptor = α7 receptor (Rattus norvegicus, UniProt Q05941); assay: Hippocampal slice GABA sIPSC frequency; assay type: cell-based; details: 5 μM
Chain of α7 receptor (Q05941 23-502): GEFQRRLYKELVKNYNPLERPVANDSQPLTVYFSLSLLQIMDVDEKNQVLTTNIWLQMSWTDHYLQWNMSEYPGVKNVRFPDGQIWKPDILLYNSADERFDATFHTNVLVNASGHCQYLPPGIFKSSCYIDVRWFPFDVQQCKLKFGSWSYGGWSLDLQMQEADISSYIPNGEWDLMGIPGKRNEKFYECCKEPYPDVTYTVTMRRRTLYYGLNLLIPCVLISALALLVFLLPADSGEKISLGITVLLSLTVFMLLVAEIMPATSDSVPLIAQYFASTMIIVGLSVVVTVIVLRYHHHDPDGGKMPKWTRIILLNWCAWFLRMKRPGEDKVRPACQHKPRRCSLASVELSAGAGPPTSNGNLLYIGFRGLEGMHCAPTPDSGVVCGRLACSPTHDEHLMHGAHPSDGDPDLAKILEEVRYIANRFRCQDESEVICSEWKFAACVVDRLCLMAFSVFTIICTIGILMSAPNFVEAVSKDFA
Source text: (§1) In membranes prepared either from cultured, human recombinant α7 receptor-expressing, human embryonic kidney cells α7-HEK) or from rat brain hippocampus, AZD0328 competed with binding of an iodinated form of the high-affinity, selective α7 receptor antagonist snake toxin, [^125I]-α-bungarotoxin (BTX) (Table 1). In Xenopus oocytes injected with human, recombinant α7 receptor mRNA, AZD0328 activates whole cell currents (Table 2). […] In acutely dissociated rat hippocampal interneurons, AZD0328 elicits rapidly activated, desensitizing whole-cell current (Table 1), consistent with the known properties of rat neuronal α7 receptors. […] AZD0328 modulates synaptic function, consistent with the well-known role of α7 receptors as heteroreceptor modulators of glutamatergic and GABAergic synaptic function.

ferrets = assay: Emetic potential in ferrets; assay type: in vivo; details: ferret
Experimental: The emetic potential of AZD0328 was investigated in ferrets (n=6-8/dose) following a single oral dose of vehicle or AZD0328 (Table 3). Videotape recordings were used for observation of the animals up to 4 h after dose for quantitation and timing of emetic behaviours, characterised as retches (abdominal contractions), vomits and wet-dog shakes.

[1] = molecular target: α7 receptor binding sites (Rattus norvegicus, UniProt Q05941); assay type: in vivo; details: sc, 2-4 h
Chain of α7 receptor binding sites (Q05941 23-502): as above

[2] = molecular target: T1, mouse recombinant α7 receptor (Mus musculus, UniProt P49582); assay: Whole cell current, oocytes; assay type: cell-based; details: oocyte
T1 construct: expressed in transfected cells; host or cells: Xenopus oocytes
T1 sequence (P49582 23-502): as the sequence (Q05941 23-502) above, with A402T counted along it
Source text: as §1

[3] = molecular target: T2, rat recombinant α7 receptor (Rattus norvegicus, UniProt Q05941); assay: Whole cell current, oocytes; assay type: cell-based; details: oocyte
T2 construct: expressed in transfected cells; host or cells: Xenopus oocytes
T2 sequence (Q05941 23-502): as the sequence (Q05941 23-502) above
Source text: as §1

[4] = molecular target: T3, hERG-encoded potassium channel (Homo sapiens, UniProt Q12809); assay: hERG patch clamp; assay type: cell-based; details: HEK cells, read-out: IC50, block of hERG tail current (estimated)
T3 construct: expressed in transfected cells; host or cells: HEK cells
T3 sequence (Q12809 whole entry): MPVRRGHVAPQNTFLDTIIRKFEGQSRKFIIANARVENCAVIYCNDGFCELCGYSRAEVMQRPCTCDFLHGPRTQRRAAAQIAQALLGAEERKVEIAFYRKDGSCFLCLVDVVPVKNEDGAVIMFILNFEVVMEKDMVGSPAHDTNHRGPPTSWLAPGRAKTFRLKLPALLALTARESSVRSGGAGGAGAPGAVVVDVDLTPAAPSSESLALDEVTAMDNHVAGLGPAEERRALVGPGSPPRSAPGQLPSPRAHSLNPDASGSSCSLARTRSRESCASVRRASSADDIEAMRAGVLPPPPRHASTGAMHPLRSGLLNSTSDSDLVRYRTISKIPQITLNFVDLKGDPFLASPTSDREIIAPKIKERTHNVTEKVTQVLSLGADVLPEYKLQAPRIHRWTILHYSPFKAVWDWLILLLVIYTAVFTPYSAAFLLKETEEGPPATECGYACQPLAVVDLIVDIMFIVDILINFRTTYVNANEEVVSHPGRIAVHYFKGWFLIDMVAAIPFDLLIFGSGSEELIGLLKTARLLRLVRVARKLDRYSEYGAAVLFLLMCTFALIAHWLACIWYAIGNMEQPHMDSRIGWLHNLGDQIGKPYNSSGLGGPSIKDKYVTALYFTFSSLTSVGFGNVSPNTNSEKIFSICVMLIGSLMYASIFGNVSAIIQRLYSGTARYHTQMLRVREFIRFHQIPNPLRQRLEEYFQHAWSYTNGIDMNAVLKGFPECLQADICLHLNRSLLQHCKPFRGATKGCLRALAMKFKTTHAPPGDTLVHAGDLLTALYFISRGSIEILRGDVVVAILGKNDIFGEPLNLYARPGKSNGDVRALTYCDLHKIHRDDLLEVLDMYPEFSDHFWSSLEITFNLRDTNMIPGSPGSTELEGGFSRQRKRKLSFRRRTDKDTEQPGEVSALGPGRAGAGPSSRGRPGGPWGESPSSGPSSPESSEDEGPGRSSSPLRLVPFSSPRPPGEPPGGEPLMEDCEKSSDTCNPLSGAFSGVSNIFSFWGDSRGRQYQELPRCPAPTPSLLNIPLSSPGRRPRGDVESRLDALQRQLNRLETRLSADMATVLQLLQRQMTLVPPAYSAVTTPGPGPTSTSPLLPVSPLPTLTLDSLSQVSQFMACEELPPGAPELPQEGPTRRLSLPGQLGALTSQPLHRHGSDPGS
Experimental: A study was performed to evaluate the effects of AZD0328 on the α-subunit of the voltage-dependent potassium channel encoded by the human ether-a-go-go-related gene (hERG), using the patch clamp technique (Table 3).

[5] = Single oral dose pharmacokinetics in healthy human volunteers; assay type: in vivo; design: AUC/dose: unit not given beside the values; details: for Cmax / Tmax / AUC / AUC(0-t) / half-life: human, plasma; for Cmax / AUC / AUC(0-t) / half-life / Cmax/Dose / AUC/dose / CL/F: geometric mean; for Tmax: median
Experimental: Total oral doses of AZD0328 in the range 0.025-0.68 mg produced mean plasma concentrations of 0.6-15 nM, consistent with the range of plasma concentrations found to be associated with improved performance in the spatial delayed response test in monkeys. Total oral doses of AZD0328 in the range 0.005-2 mg produced mean plasma concentrations of 0.17-43.9 nM, within the range of plasma concentrations found to be associated with improved performance in rodent models.

With c1cnc2c(c1)C[C@@]1(CN3CCC1CC3)O2 [AZD0328, (R)-Spiro[1-azabicyclo[2.2.2]octane-3,2′(3′H)-furo[2,3-b]pyridine]] the “duration of improved SDR performance after a single dose” value (rhesus monkeys; four of nine monkeys, middle doses (0.0016 and 0.00048 mg/kg im)) was “more than one month”, the “higher doses with no effect or transiently impaired SDR performance” value (rhesus monkeys; rhesus monkeys) was ≥ 16 µg/kg and the “lower doses with no effect or transiently impaired SDR performance” value (rhesus monkeys; rhesus monkeys) was ≤ 0.16 µg/kg. For the same compound, the “percent correct responses (SDR)” value (rhesus monkeys; rhesus monkeys, 0.016 mg/kg) was “non-significant increase”, the “GABA sIPSC frequency” value (α7 receptor) was 251 % baseline and the “dose with statistically significant difference from vehicle for retches” value (ferrets; oral) was 5600 µg/kg. The emetic responses (ferrets; oral gavage 5.6, 16.9 or 56.2 mg/kg) was “emetic responses were present at all doses”, the “Dose active: [125I]-α-bungarotoxin binding ex vivo, increased receptor number” value [1] was 0.1 µg/kg and the EC50 ([2]; mouse recombinant α7) was 1000 nM. The Emax ([2]; mouse recombinant α7, 10 μM, read-out: Maximum response, whole cell current) was 83%, the EC50 ([3]; rat recombinant α7) was 1100 nM and the Emax ([3]; rat recombinant α7, 10 μM, read-out: Maximum response, whole cell current) was 87%. For the same compound, the IC50 [4] was 32000 nM, the Cmax ([5]; single oral dose 0.005 mg) was 0.17 nM and the Tmax ([5]; single oral dose 0.005 mg) was 0.8 h. The AUC ([5]; single oral dose 0.025 mg) was 0.0061 µM·h, the AUC(0-t) ([5]; single oral dose 0.025 mg) was 0.0046 µM·h and the Cmax ([5]; single oral dose 0.025 mg) was 0.6 nM. It also gave a half-life ([5]; single oral dose 0.025 mg) of 6.3 h, a Tmax ([5]; single oral dose 0.025 mg) of 1.3 h and an AUC ([5]; single oral dose 0.075 mg) of 0.0169 µM·h. The AUC(0-t) ([5]; single oral dose 0.075 mg) was 0.0156 µM·h, the Cmax ([5]; single oral dose 0.075 mg) was 2.1 nM and the half-life ([5]; single oral dose 0.075 mg) was 5.9 h. It also gave a Tmax ([5]; single oral dose 0.075 mg) of 1.5 h, an AUC ([5]; single oral dose 0.23 mg) of 0.0652 µM·h and an AUC(0-t) ([5]; single oral dose 0.23 mg) of 0.0588 µM·h. It also gave a Cmax ([5]; single oral dose 0.23 mg) of 6.4 nM, a half-life ([5]; single oral dose 0.23 mg) of 6.7 h and a Tmax ([5]; single oral dose 0.23 mg) of 1.5 h. For the same compound, the AUC ([5]; single oral dose 0.68 mg) was 0.144 µM·h, the AUC(0-t) ([5]; single oral dose 0.68 mg) was 0.133 µM·h and the Cmax ([5]; single oral dose 0.68 mg) was 15 nM. It also gave a half-life ([5]; single oral dose 0.68 mg) of 6 h, a Tmax ([5]; single oral dose 0.68 mg) of 2.2 h and an AUC ([5]; single oral dose 1.35 mg) of 0.333 µM·h. It also gave an AUC(0-t) ([5]; single oral dose 1.35 mg) of 0.3 µM·h, a Cmax ([5]; single oral dose 1.35 mg) of 31 nM and a half-life ([5]; single oral dose 1.35 mg) of 6.9 h. For the same compound, the Tmax ([5]; single oral dose 1.35 mg) was 3.2 h, the AUC ([5]; single oral dose 2 mg) was 0.421 µM·h and the AUC(0-t) ([5]; single oral dose 2 mg) was 0.395 µM·h. It also gave a Cmax ([5]; single oral dose 2 mg) of 43.9 nM, a half-life ([5]; single oral dose 2 mg) of 5.6 h and a Tmax ([5]; single oral dose 2 mg) of 2.5 h. It also gave a Cmax/Dose ([5]; single oral dose 0.005 mg) of 0.007, an AUC/dose ([5]; single oral dose 0.025 mg) of 0.053 and a CL/F ([5]; single oral dose 0.025 mg) of 19.0 L/h. It also gave a Cmax/Dose ([5]; single oral dose 0.025 mg) of 0.006, an AUC/dose ([5]; single oral dose 0.075 mg) of 0.049 and a CL/F ([5]; single oral dose 0.075 mg) of 20.5 L/h. It also gave a Cmax/Dose ([5]; single oral dose 0.075 mg) of 0.006, an AUC/dose ([5]; single oral dose 0.23 mg) of 0.061 and a CL/F ([5]; single oral dose 0.23 mg) of 16.3 L/h. The Cmax/Dose ([5]; single oral dose 0.23 mg) was 0.006, the AUC/dose ([5]; single oral dose 0.68 mg) was 0.046 and the CL/F ([5]; single oral dose 0.68 mg) was 21.9 L/h. For the same compound, the Cmax/Dose ([5]; single oral dose 0.68 mg) was 0.005, the AUC/dose ([5]; single oral dose 1.35 mg) was 0.054 and the CL/F ([5]; single oral dose 1.35 mg) was 18.7 L/h. It also gave a Cmax/Dose ([5]; single oral dose 1.35 mg) of 0.005, an AUC/dose ([5]; single oral dose 2 mg) of 0.046 and a CL/F ([5]; single oral dose 2 mg) of 22.0 L/h. The Cmax/Dose ([5]; single oral dose 2 mg) was 0.005, the mean plasma concentrations ([5]; total oral doses 0.005-2 mg) was 0.17 to 43.9 nM and the mean plasma concentrations ([5]; total oral doses 0.025-0.68 mg) was 0.6 to 15 nM.

Reference: US20080242688A1, “Method 741” (ASTRAZENECA AB, priority 2007, published 2008)
